Assay results reported in PubChem BioAssay AID330 (DTP/NCI, 2004).
Values joined by “and” are separate entries in the source; they are usually repeats but may differ in a detail not shown here. Equal values may be shown once. Inconclusive results and toxic doses are left out. Rule for the calls: active = survival T/C of 150% or more; inactive = T/C below 125% in these data.

System: P388 leukemia ip, CD2F1 mice, survival T/C
Assay: NCI In Vivo Anticancer Drug Screen. Data for tumor model P388 Leukemia (intraperitoneal) in CD2F1 (CDF1) mice
Details: endpoint: median survival time, higher = longer survival
Summary of the method: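 Mice carrying the transplanted tumor received test compound or vehicle. Survival was recorded in each group, and the value is the treated-group measurement divided by that of the vehicle-treated control group.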

[1] = dose: 12.5 mg/kg/injection, schedule: Q01DX009 (ip), vehicle: other
[2] = dose: 25.0 mg/kg/injection, schedule: Q01DX009 (ip), vehicle: other
[3] = dose: 50.0 mg/kg/injection, schedule: Q01DX005 (ip), vehicle: Klucel (hydroxypropylcellulose) (HPC)
[4] = dose: 100.0 mg/kg/injection, schedule: Q01DX005 (ip), vehicle: Klucel (hydroxypropylcellulose) (HPC)
[5] = dose: 200.0 mg/kg/injection, schedule: Q01DX005 (ip), vehicle: Klucel (hydroxypropylcellulose) (HPC)
[6] = dose: 60.0 mg/kg/injection, schedule: Q01DX005 (ip), vehicle: saline with Tween-80
[7] = dose: 120.0 mg/kg/injection, schedule: Q01DX005 (ip), vehicle: saline with Tween-80
[8] = dose: 50.0 mg/kg/injection, schedule: Q01DX005 (ip), vehicle: saline with Tween-80
[9] = dose: 100.0 mg/kg/injection, schedule: Q01DX005 (ip), vehicle: saline with Tween-80
[10] = dose: 200.0 mg/kg/injection, schedule: Q01DX005 (ip), vehicle: saline with Tween-80
[11] = dose: 50.0 mg/kg/injection, schedule: Q01DX009 (ip), vehicle: saline with Tween-80
[12] = dose: 100.0 mg/kg/injection, schedule: Q01DX009 (ip), vehicle: saline with Tween-80
[13] = dose: 50.0 mg/kg/injection, schedule: Q01DX009 (ip), vehicle: Klucel (hydroxypropylcellulose) (HPC)
[14] = dose: 100.0 mg/kg/injection, schedule: Q01DX009 (ip), vehicle: Klucel (hydroxypropylcellulose) (HPC)
[15] = dose: 200.0 mg/kg/injection, schedule: Q01DX009 (ip), vehicle: Klucel (hydroxypropylcellulose) (HPC)
[16] = dose: 50.0 mg/kg/injection, schedule: Q01DX009 (ip), vehicle: water

Measured: T/C

Cc1ccc2c(O)c3c(cc2c1)C(=O)c1c2c(cc(O)c1C3=O)C1(C)OC(O2)C(O)C(N(C)C)C1O (configuration not stated)
inactive: dose: 1.6 mg/kg/injection, schedule: Q01DX009 (ip), vehicle: other 97 % of control | dose: 3.13 mg/kg/injection, schedule: Q01DX009 (ip), vehicle: other 98 % of control | dose: 6.25 mg/kg/injection, schedule: Q01DX009 (ip), vehicle: other 87 % of control | [1] 116 % of control | [2] 97 % of control

COc1ccc(/C=C2\N=C(c3ccccc3)OC2=O)c(OCc2ccccc2)c1
inactive: [1] 88 % of control | [2] 89 % of control | dose: 100.0 mg/kg/injection, schedule: Q01DX009 (ip), vehicle: other 88 % of control | dose: 200.0 mg/kg/injection, schedule: Q01DX009 (ip), vehicle: other 94 % of control

CC(=O)/C=C1\N(C)c2ccccc2C1(C)C
inactive: [3] 104 % of control | [4] 107 % of control | [5] 100 % of control

COC(=O)C1(C(C(=O)c2ccccc2)c2ccccc2)NC(=S)NC(=O)C1C#N (configuration not stated)
inactive: [6] 100 % of control | [7] 105 % of control | dose: 240.0 mg/kg/injection, schedule: Q01DX005 (ip), vehicle: saline with Tween-80 100 % of control

Cc1ccc([Si]23OC(C)CN(CC(C)O2)CC(C)O3)cc1 (configuration not stated)
inactive: [8] 100 % of control | [9] 109 % of control | [10] 100 % of control

C=C(/C=C/C1OC2OC(C)(C)OC2C1OC)OP(=O)(OCC)OCC (configuration not stated)
inactive: dose: 100.0 mg/kg/injection, schedule: Q04DX002 (ip), vehicle: saline with Tween-80 103 % of control | dose: 200.0 mg/kg/injection, schedule: Q04DX002 (ip), vehicle: saline with Tween-80 100 % of control | dose: 400.0 mg/kg/injection, schedule: Q04DX002 (ip), vehicle: saline with Tween-80 91 % of control

CC1CCC(C(C)C)C(NC(=O)c2ccccn2)C1 (configuration not stated)
inactive: dose: 100.0 mg/kg/injection, schedule: Q04DX002 (ip), vehicle: Klucel (hydroxypropylcellulose) (HPC) 101 % of control | dose: 200.0 mg/kg/injection, schedule: Q04DX002 (ip), vehicle: Klucel (hydroxypropylcellulose) (HPC) 90 % of control | dose: 400.0 mg/kg/injection, schedule: Q04DX002 (ip), vehicle: Klucel (hydroxypropylcellulose) (HPC) 97 % of control

O=Cc1c2ccc(Cl)cc2nc2cc(Cl)ccc12
inactive: dose: 25.0 mg/kg/injection, schedule: Q01DX001 (ip), vehicle: saline with Tween-80 100 % of control | dose: 50.0 mg/kg/injection, schedule: Q01DX001 (ip), vehicle: saline with Tween-80 90 % of control | dose: 100.0 mg/kg/injection, schedule: Q01DX001 (ip), vehicle: saline with Tween-80 100 % of control

Cc1cc2c(C(C)C)c(O)c(O)c(C=NC3CCCCC3)c2c(O)c1-c1c(C)cc2c(C(C)C)c(O)c(O)c(C=NC3CCCCC3)c2c1O
inactive: dose: 12.5 mg/kg/injection, schedule: Q01DX005 (ip), vehicle: saline with Tween-80 103 % of control | dose: 25.0 mg/kg/injection, schedule: Q01DX005 (ip), vehicle: saline with Tween-80 92 % of control | [8] 88 % of control

CCCCCCC(=O)/C=C/c1ccc(OC(=O)c2ccc(C#N)cc2)cc1
inactive: [11] 100 % of control | [12] 101 % of control | dose: 200.0 mg/kg/injection, schedule: Q01DX009 (ip), vehicle: saline with Tween-80 95 % of control

CC1(c2ccccc2)OC1(C)c1ccccc1 (configuration not stated)
inactive: [13] 103 % of control | [14] 103 % of control | [15] 103 % of control

O=C(Nc1ccc(O)cc1)C(F)(F)F
inactive: [13] 93 % of control | [14] 95 % of control | [15] 90 % of control

CN1C2C=CC(=O)C1C1C(=O)N(c3ccccc3)C(=O)C12 (configuration not stated)
inactive: dose: 17.5 mg/kg/injection, schedule: Q01DX005 (ip), vehicle: Klucel (hydroxypropylcellulose) (HPC) 109 % of control and 121 % of control | dose: 35.0 mg/kg/injection, schedule: Q01DX005 (ip), vehicle: Klucel (hydroxypropylcellulose) (HPC) 113 % of control and 118 % of control | dose: 70.0 mg/kg/injection, schedule: Q01DX005 (ip), vehicle: Klucel (hydroxypropylcellulose) (HPC) 121 % of control

[B-][N+]1(C)CC[N+]([B-])(C)CC1 (configuration not stated)
inactive: dose: 5.0 mg/kg/injection, schedule: Q01DX009 (ip), vehicle: saline with Tween-80 90 % of control | dose: 10.0 mg/kg/injection, schedule: Q01DX009 (ip), vehicle: saline with Tween-80 95 % of control | dose: 20.0 mg/kg/injection, schedule: Q01DX009 (ip), vehicle: saline with Tween-80 90 % of control

Cn1nnc(/C(N)=N/N=C/c2ccccc2)n1
inactive: [13] 100 % of control | [14] 102 % of control | [15] 94 % of control

CC(=O)C1(O)CCCC(OC2CC(N)C(O)C(C)O2)C1 (configuration not stated)
inactive: dose: 6.25 mg/kg/injection, schedule: Q01DX009 (ip), vehicle: water 100 % of control | dose: 12.5 mg/kg/injection, schedule: Q01DX009 (ip), vehicle: water 95 % of control | dose: 25.0 mg/kg/injection, schedule: Q01DX009 (ip), vehicle: water 104 % of control | [16] 113 % of control | dose: 100.0 mg/kg/injection, schedule: Q01DX009 (ip), vehicle: water 113 % of control

ClCC(Br)CBr (configuration not stated) (tested in a mixture with another compound)
inactive: dose: 12.5 mg/kg/injection, schedule: Q01DX009 (ip), vehicle: saline 96 % of control | dose: 25.0 mg/kg/injection, schedule: Q01DX009 (ip), vehicle: saline 96 % of control

CCCSCCSCCC
inactive: dose: 25.0 mg/kg/injection, schedule: Q01DX009 (ip), vehicle: saline with Tween-80 91 % of control | [11] 100 % of control | [12] 95 % of control

O=c1c2sc3ccccc3c2ncn1/N=C/c1ccc(Cl)cc1
inactive: [3] 105 % of control | [4] 96 % of control | [5] 88 % of control

CC1(C#N)N=C(c2ccccc2)c2ccccc2N1C(=O)Oc1ccccc1 (configuration not stated)
inactive: [6] 98 % of control | [7] 98 % of control

CCCS/C(N)=N/N=C/c1ccc([N+](=O)[O-])o1
inactive: dose: 6.25 mg/kg/injection, schedule: Q01DX009 (ip), vehicle: suspension in saline 102 % of control | dose: 12.5 mg/kg/injection, schedule: Q01DX009 (ip), vehicle: suspension in saline 92 % of control | dose: 25.0 mg/kg/injection, schedule: Q01DX009 (ip), vehicle: suspension in saline 91 % of control | dose: 50.0 mg/kg/injection, schedule: Q01DX009 (ip), vehicle: suspension in saline 109 % of control

COC(=O)C(Cc1ccccc1C(N)=O)(OC)OC
inactive: dose: 50.0 mg/kg/injection, schedule: Q01DX005 (ip), vehicle: saline 98 % of control | dose: 100.0 mg/kg/injection, schedule: Q01DX005 (ip), vehicle: saline 99 % of control | dose: 200.0 mg/kg/injection, schedule: Q01DX005 (ip), vehicle: saline 98 % of control

COC1C(Br)C(C)(OC)c2ccccc2N1C#N (configuration not stated)
inactive: [13] 101 % of control | [14] 100 % of control | [15] 100 % of control

CCCCCCCCCCCCCCCCCC[N+]1([O-])CCCC1
inactive: [16] 93 % of control

NC(CSSCC(N)C(=O)O)C(=O)O (configuration not stated)
inactive: [13] 105 % of control | [14] 105 % of control | [15] 106 % of control

Cc1nn(C)c(=S)[nH]c1=O
inactive: [3] 103 % of control | [8] 105 % of control | [4] 95 % of control | [9] 106 % of control | [5] 110 % of control | [10] 103 % of control

COc1cc(Br)c(C(=O)N(C)c2ccccc2)cc1OC
inactive: [2] 106 % of control | dose: 50.0 mg/kg/injection, schedule: Q01DX009 (ip), vehicle: other 108 % of control

ClCc1nnc2cccc(Cl)n12
inactive: dose: 100.0 mg/kg/injection, schedule: Q01DX001 (ip), vehicle: Klucel (hydroxypropylcellulose) (HPC) 102 % of control | dose: 200.0 mg/kg/injection, schedule: Q01DX001 (ip), vehicle: Klucel (hydroxypropylcellulose) (HPC) 96 % of control | dose: 400.0 mg/kg/injection, schedule: Q01DX001 (ip), vehicle: Klucel (hydroxypropylcellulose) (HPC) 99 % of control
